Assay results: patent US9867798B2, “Ladostigil therapy for immunomodulation” (priority 2012, dated 2018)
Values joined by “and” are separate entries in the source; they are usually repeats but may differ in a detail not shown here. Equal values may be shown once.

Experiments:
BuChE = BuChE (Homo sapiens, UniProt P06276); experiment: Relative potency in inhibiting BuChE and AChE
[1] = system: cholinesterase (mostly BuChE); experiment: ChE inhibition in gerbil plasma (Ellman); assay type: in vivo, Psammomys obesus; conditions: 17 mg/kg/day, three hours after the last gavage, vs same gerbil before treatment
Procedure: (§1) Male Psammomys obesus gerbils aged 3.5-4 months were given a high-energy diet consisting of 938.5 g/Kg version of 2018SC+F Harlan Tekled Ltd., USA, supplemented with soybean oil to a final fat concentration of 6%. After one week on the diet, blood was taken for measurement of glucose and ChE activity. Half of the animals were given ladostigil (17 mg/kg/day) by gavage while the remainder received tap water by the same route. Blood was taken from the tail once weekly for measurement of glucose as described in Kalman R., et al, (2001). Lab Anim. 35:346-352. After three weeks of treatment the animals they were deeply anesthetized, blood was taken by cardiac puncture for measurement of ChE activity, glucose and insulin levels and the pancreas removed for section and staining with haematoxylin and eosin and the number of islets counted. Blood glucose of 11 animals had reached values exceeding 200 mg/dL after one week on the high energy diet and the average value for the whole group was 300±27 mg/dL. […] It is noted, that cholinesterase activity in plasma of Psammomys obesus is mostly mediated by butyrylcholinesterase (BuChE) rather than by AChE.

ChE = ChE inhibition in heart or brain of treated rats; assay type: in vivo
AChE = conditions: 51 and 70.1 mg/kg/day, doses effective in ameliorating EAE; cited from earlier work
[2] = system: Psammomys obesus gerbils on high-energy diet; experiment: Diabetes in gerbils on high-energy diet: glucose, insulin, pancreatic islets; assay type: in vivo; set-up: Change in glucose: unit: mg/dL
Procedure: as §1

IL-1β and MPO in colon = experiment: Cytokines and myeloperoxidase in colon of DSS-treated mice; assay type: in vivo; conditions: 8th day of DSS ingestion, 5 vs 10 mg/kg
Procedure: TNF-α, IL-6, and IL-1β levels in homogenized colon were measured by means of a BioLegend ELISA Mouse kit. One cm of colon was homogenized in ice-cold PBS buffer containing protease inhibitor cocktail (Sigma, St. Louis, Mo., USA; dilution 1:100) using a Polytron homogenizer, and then centrifuged for 15 min at 14,000 rpm at 4° C. Supernatants were diluted 1:5 in diluent buffer supplied in the kit and applied to 96-well MaxiSorb Elisa plates according to manufacturer's protocol. Total protein concentration in the tissue supernatant was measured by means of a BCA kit. Levels of cytokines are expressed as pg/mg total tissue protein.
Neutrophil infiltration was monitored by measuring myeloperoxidase (MPO) activity in colon segments according to the protocol described by Bradley (1982) in 96-well micro-titer plates by mixing 10 μl of the supernatant with 290 μl of o-dianisidine dihydrochloride solution. Data were interpolated from a MPO standard curve. MPO activity was expressed as units per μg total protein measured in the sample by Pierce BCA Protein Assay Kit as described above.

BuChE, sequence (P06276 29-602): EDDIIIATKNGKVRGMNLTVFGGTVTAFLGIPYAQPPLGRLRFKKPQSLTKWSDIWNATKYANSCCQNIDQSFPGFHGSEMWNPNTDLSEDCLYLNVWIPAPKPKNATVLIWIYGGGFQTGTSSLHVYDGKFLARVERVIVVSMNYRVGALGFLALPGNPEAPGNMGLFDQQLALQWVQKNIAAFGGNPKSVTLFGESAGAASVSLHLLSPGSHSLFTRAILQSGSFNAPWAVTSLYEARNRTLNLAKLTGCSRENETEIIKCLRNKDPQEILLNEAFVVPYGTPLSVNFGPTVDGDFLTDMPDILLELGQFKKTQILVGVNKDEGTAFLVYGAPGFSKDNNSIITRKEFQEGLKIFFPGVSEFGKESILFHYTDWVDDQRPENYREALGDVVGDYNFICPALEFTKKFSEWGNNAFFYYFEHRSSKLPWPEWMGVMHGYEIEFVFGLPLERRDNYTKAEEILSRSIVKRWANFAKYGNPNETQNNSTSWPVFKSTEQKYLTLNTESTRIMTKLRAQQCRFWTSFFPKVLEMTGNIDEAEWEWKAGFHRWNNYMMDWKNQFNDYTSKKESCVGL

## C#CCN[C@@H]1CCc2ccc(OC(=O)N(C)CC)cc21 [Ladostigil, R(+)-6-(N-methyl, N-ethyl-carbamoyloxy)-N′-propargyl-1-aminoindan]
BuChE
  Potency in inhibiting BuChE relative to AChE: at least ten times more potent in inhibiting BuChE than in inhibiting AChE
[1]
  ChE inhibition in plasma: 50±3%
ChE; 1 mg/kg/day
  ChE inhibition in the heart or brain: No significant ChE inhibition
ChE; 8.5 mg/kg/day
  ChE activity inhibited: 30%
AChE
  Inhibition of AChE in blood: 60-65%
  Inhibition of AChE in brain: 47-52%
[2]; 17 mg/kg/day, three weeks
  Blood glucose levels: decrease in blood glucose levels in all six animals
[2]; individual gerbils, 17 mg/kg/day
  Insulin after 3 weeks of treatment: 132 mU/L and 126.6 mU/L and 124.6 mU/L and 85.3 mU/L and 172 mU/L and 135.3 mU/L
[2]; individual gerbils, 17 mg/kg/day by gavage, 17 mg/kg/day
  Glucose after 3 weeks of treatment: 284 mg/dL and 250 mg/dL and 180 mg/dL and 311 mg/dL and 222 mg/dL and 266 mg/dL
[2]; individual gerbils, 17 mg/kg/day, after 3 weeks vs before, 17 mg/kg/day
  Change in glucose: −136 and −23 and −20 and −41 and −65 and −19
[2]; individual gerbils, 17 mg/kg/day, after 3 weeks, 17 mg/kg/day
  No of islets: 42 and 117 and 79 (2×) and 99 and 87
[2]; individual gerbils, baseline after one week of high energy diet, group later given 17 mg/kg, 17 mg/kg
  Glucose before treatment: 420 mg/dL and 273 mg/dL and 200 mg/dL and 352 mg/dL and 287 mg/dL and 285 mg/dL
IL-1β and MPO in colon
  Reduction of IL-1β levels and MPO activity in colon: 5 mg/kg was more effective than 10 mg/kg
